# Experimental data: article PMC6467784 (Journal of medicinal chemistry, 2019)
# “And” between values parts separate entries of the source, which are not always exact repeats. Equal values may be shown once.
# Key:
# wild-type C57BL/6J mice = assay: Body temperature and locomotor activity by telemetry after ip. dosing; assay type: in vivo, mouse; conditions: for Effect on Tb in WT mice: ip., up to 3 or 10 mg/kg
# hA1AR = biological target: T1, hA1AR (Homo sapiens, UniProt P30542); assay: hA1AR radioligand binding, CHO cell membranes; conditions: for hA1AR selectivity compared to hA3AR: ratio of binding Ki
# T1 sequence (P30542 1-326): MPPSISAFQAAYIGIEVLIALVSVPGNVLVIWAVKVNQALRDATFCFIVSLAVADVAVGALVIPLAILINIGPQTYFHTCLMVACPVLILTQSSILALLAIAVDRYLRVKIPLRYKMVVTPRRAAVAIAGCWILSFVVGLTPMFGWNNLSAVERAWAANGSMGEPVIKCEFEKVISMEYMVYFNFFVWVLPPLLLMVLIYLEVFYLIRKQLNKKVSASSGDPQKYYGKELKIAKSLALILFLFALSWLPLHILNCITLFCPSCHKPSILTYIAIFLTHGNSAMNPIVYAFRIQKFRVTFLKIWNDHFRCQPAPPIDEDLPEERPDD
# mA1AR = biological target: T2, mA1AR (Mus musculus, UniProt Q60612); assay: mA1AR radioligand binding; conditions: ratio of binding Ki
# T2 sequence (Q60612 1-326): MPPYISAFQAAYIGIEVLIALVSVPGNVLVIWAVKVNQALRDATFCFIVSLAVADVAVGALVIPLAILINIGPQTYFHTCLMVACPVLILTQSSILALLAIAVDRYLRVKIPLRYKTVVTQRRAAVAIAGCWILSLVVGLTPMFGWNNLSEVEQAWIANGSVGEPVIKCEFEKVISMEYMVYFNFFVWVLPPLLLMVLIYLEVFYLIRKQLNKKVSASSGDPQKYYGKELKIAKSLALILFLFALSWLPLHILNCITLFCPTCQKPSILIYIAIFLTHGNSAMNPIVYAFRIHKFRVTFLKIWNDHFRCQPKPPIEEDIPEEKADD
# [1] = tested on: off-target receptors and transporters; assay: PDSP off-target screen; assay type: binding, human
# hA2BAR = biological target: T3, hA2BAR (Homo sapiens, UniProt P29275); assay: hA2BAR radioligand binding using [3H]54; conditions: read-out: hA2BAR % binding inhibition at 10 μM
# T3 sequence (P29275 1-332): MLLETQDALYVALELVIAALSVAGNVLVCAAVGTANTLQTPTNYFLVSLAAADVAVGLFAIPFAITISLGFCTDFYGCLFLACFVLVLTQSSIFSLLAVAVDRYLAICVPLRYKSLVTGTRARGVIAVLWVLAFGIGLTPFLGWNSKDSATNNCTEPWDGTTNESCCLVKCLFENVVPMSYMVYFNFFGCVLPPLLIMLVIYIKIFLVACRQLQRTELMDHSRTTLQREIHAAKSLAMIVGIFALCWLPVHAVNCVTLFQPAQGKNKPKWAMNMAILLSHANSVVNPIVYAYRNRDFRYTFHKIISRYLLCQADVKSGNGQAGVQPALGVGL
# mice = assay: Hypothermia after intracerebroventricular infusion; assay type: in vivo, mouse
# A1AR, A3AR = assay: Hypothermia in A1AR, A3AR and A1AR/A3AR deficient mice; assay type: in vivo, mouse; conditions: 3 mg/kg ip.
smiles,measurement,setting,value
"OC[C@H]1O[C@@H](n2cnc3c(NC(C4CCC4)C4CCC4)nc(Cl)nc32)[C@H](O)C1O (stereo in doubt) [Compound 12, (2R,3R,4R,5R)-2-(2-Chloro-6-((dicyclobutylmethyl)amino)-9H-purin-9-yl)-5-(hydroxymethyl)tetrahydrofuran-3,4-diol]",Tb,"wild-type C57BL/6J mice; 3 mg/kg ip., average from dosing to 60 min, mean ±SD",35.5±0.8 °C
same,hA1AR affinity relative to 9,hA1AR; lower affinity than 9,8 fold
same,hA1AR selectivity compared to hA3AR,hA1AR,742 fold
"O[C@@H]1[C@H](O)[C@@H](CCl)O[C@H]1n1cnc2c(NC(C3CCC3)C3CCC3)ncnc21 [Compound 10, (2S,3S,4R,5R)-2-(Chloromethyl)-5-(6-((dicyclobutylmethyl)amino)-9H-purin-9-yl)tetrahydrofuran-3,4-diol]",mA1AR selectivity compared to mA3AR,mA1AR,2970 fold and > 2000 fold
same,hA1AR selectivity compared to hA3AR,hA1AR,3390 fold
"CNC(=O)[C@H]1O[C@@H](n2cnc3c(N)ncnc32)[C@H](O)[C@@H]1O [Compound 15, reference compound]","Off-target, receptor: interactions found",[1],none
"CCNC(=O)[C@H]1O[C@@H](n2cnc3c(N)ncnc32)[C@H](O)[C@@H]1O [Compound 16, reference compound]","Off-target, receptor: interactions found",[1],none
O[C@@H]1[C@H](O)[C@@H]2C[C@@H]2[C@H]1n1cnc2c(NC(C3CCC3)C3CCC3)nc(Cl)nc21 [Compound 19],inhibition at 10 µM,hA2BAR,24%
Nc1nc(Cl)nc2c1ncn2[C@H]1[C@H](O)[C@H](O)[C@]2(CCl)C[C@H]12 [Compound 22],hA1AR affinity relative to 21,hA1AR; higher affinity than parent 21,14 fold
"OC[C@@]12C[C@@H]1[C@@H](n1cnc3c(NC(C4CCC4)C4CCC4)ncnc31)[C@H](O)[C@@H]2O [Compound 24, (1R,2R,3S,4R,5S)-4-(6-((Dicyclobutylmethyl)amino)-9H-purin-9-yl)-1-(hydroxymethyl)bicyclo[3.1.0]hexane-2,3-diol]",Effect on Tb after icv. administration,mice; 1.67 μg/mouse icv. (= […]),reduced Tb only slightly
same,Tb reached after icv. administration,mice; 5 μg injected icv. (equivalent to […]),~ 24 °C
same,A1AR selectivity,"hA1AR; abstract, species and comparator not stated",~ 400 fold
"O[C@H]1[C@H](n2cnc3c(NC(C4CCC4)C4CCC4)ncnc32)[C@H]2C[C@@]2(CCl)[C@H]1O [Compound 26, (1S,2R,3S,4R,5S)-1-(Chloromethyl)-4-(6-((dicyclobutylmethyl)amino)-9H-purin-9-yl)bicyclo[3.1.0]hexane-2,3-diol]",mA1AR selectivity compared to mA3AR,mA1AR,890 fold
same,hA1AR selectivity compared to hA3AR,hA1AR,~ 300 fold
"OC[C@@]12C[C@@H]1[C@@H](n1cnc3c(N[C@H]4C[C@H]5CC[C@@H]4C5)nc(Cl)nc31)[C@H](O)[C@@H]2O [Compound 29, (1R,2R,3S,4R,5S)-4-(6-(((1R,2S,4S)-Bicyclo[2.2.1]heptan-2-yl)amino)-2-chloro-9H-purin-9-yl)-1-(hydroxymethyl)bicyclo[3.1.0]hexane-2,3-diol]",Effect on Tb in WT mice,wild-type C57BL/6J mice,hypothermic effect
same,Receptor dependence of hypothermia,"A1AR, A3AR; A1AR KO, A3AR KO, double KO mice",via both central A1AR and peripheral A3AR
same,ARs causing hypothermia,"A1AR, A3AR; WT vs AR-KO mice (Figure 2)",A3AR > A1AR (Figure 2)
same,hA1AR selectivity compared to hA3AR,hA1AR,12 fold
OC[C@@]12C[C@@H]1[C@@H](n1cnc3c(N[C@H]4C[C@H]5CC[C@@H]4C5)nc(Cl)cc31)[C@H](O)[C@@H]2O [Compound 30],"Off-target, receptor: interactions found",[1],none
"O[C@H]1[C@H](n2cnc3c(N[C@H]4C[C@H]5CC[C@@H]4C5)nc(Cl)nc32)[C@H]2C[C@@]2(CCl)[C@H]1O [Compound 31, (1S,2R,3S,4R,5S)-4-(6-(((1R,2S,4S)-Bicyclo[2.2.1]heptan-2-yl)amino)-2-chloro-9H-purin-9-yl)-1-(chloromethyl)bicyclo[3.1.0]hexane-2,3-diol]",Effect on Tb in WT mice,wild-type C57BL/6J mice,did not significantly induce hypothermia
same,hA1AR selectivity compared to hA3AR,hA1AR,10 fold
same,"Off-target, receptor: interactions found",[1],none
CCOC(=O)[C@@]12C[C@@H]1[C@@H](n1cnc3c(NC(C4CCC4)C4CCC4)nc(Cl)nc31)[C@H](O)[C@@H]2O [Compound 35],inhibition at 10 µM,hA2BAR,38%
NC(=O)c1ncn([C@H]2[C@H](O)[C@H](O)[C@]3(CO)C[C@H]23)n1 [Compound 40],mA1AR selectivity compared to mA3AR,mA1AR,25.2 nM (~400) fold
same,hA1AR affinity relative to 38,hA1AR; greater affinity than riboside 38,15 fold
